# Data reported in patent publication US12534452B2, “N-(1H-imidazol-2-yl)benzamide compound and pharmaceutical composition comprising the same as active ingredient” (KAINOS MEDICINE, INC., priority 2019, dated 2026).
# Biological target: IRAK4 (Homo sapiens (Human), UniProt Q9NWZ3)
# Experiment: In vitro IRAK4 phosphorylation activity assay
# Type: biochemical
# Conditions: [γ-33P]-ATP, myelin basic protein substrate, 40 minutes at room temperature; categories
# Description: In vitro IRAK4 analysis was performed using N-(1H-imidazol-2-yl)benzamide compounds according to the present invention. All compounds were prepared by dissolving in DMSO. N-(1H-imidazol-2-yl)benzamide compound according to the present invention and other elements for the reaction were added to an assay well. In the standard Kinase Profiler service the preincubation step between the N-(1H-imidazol-2-yl)benzamide compound and kinase was not performed before the reaction.
# To the positive control well, all reactants except for the N-(1H-imidazol-2-yl)benzamide compound according to the present invention were added, and DMSO was added to remove the solvent effect. A known control inhibitor having the following structure was added to the blank wells to inhibit kinase activity and establish a base-line.
# IRAK4 was incubated with 8 mM MOPS pH 7.0, 0.2 mM EDTA, 0.33 mg/mL myelin basic protein, 10 mM magnesium acetate and [γ-33P]-ATP (specific activity approx. 500 cpm/pmol, concentration as required). The reaction was initiated by the addition of the MgATP mix. After incubation for 40 minutes at room temperature, the reaction was stopped by the addition of 3% phosphoric acid solution. 10 μL of the reaction was then spotted onto a P30 filtermat and washed three times for 5 minutes in 75 mM phosphoric acid and once in methanol prior to drying and scintillation counting.
# The results are shown in Table 26 below, where the phosphorylation activity of IC50 values for IRAK4 is shown in categories (A: <50 nM, B: 50-100 nM, C: >100 nM).
# Chain of IRAK4 (Q9NWZ3 whole entry): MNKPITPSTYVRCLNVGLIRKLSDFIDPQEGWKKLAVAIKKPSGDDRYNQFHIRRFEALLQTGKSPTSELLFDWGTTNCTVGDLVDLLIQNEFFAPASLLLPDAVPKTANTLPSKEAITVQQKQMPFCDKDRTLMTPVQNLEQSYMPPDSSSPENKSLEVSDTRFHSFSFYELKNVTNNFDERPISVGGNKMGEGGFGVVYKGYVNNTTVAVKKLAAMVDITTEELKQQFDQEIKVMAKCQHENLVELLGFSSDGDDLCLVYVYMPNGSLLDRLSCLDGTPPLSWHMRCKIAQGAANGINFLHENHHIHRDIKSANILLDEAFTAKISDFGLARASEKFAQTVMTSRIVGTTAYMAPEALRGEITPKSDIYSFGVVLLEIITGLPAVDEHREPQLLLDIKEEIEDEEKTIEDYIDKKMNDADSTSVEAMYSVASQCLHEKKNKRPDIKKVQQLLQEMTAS
row,IC50 [nM],SMILES
1,50 to 100,"Cn1cc(-c2cccc(C(=O)Nc3nc(CCCC(=O)NN4CCCCC4)cn3-c3ccccc3)c2)cn1 [Example 152, 3-(1-methyl-1H-pyrazol-4-yl)-N-(4-(4-oxo-4-(piperidin-1-ylamino)butyl)-1-phenyl-1H-imidazol-2-yl)benzamide]"
2,< 50,"O=C(CCCCCc1cn(-c2ccccc2)c(NC(=O)c2cccc(-c3ccc4ncsc4c3)c2)n1)NC1CC1 [Example 286, 3-(benzo[d]thiazol-6-yl)-N-(4-(6-(cyclopropylamino)-6-oxohexyl)-1-phenyl-1H-imidazol-2-yl)benzamide]"
3,< 50,"O=C(O)CCc1cn(-c2ccccc2)c(NC(=O)c2cccc(-c3cn[nH]c3)c2)n1 [Example 7, 3-(2-(3-(1H-pyrazol-4-yl)benzamido)-1-phenyl-1H-imidazol-4-yl)propanoic acid]"
4,< 50,"O=C(O)CCCc1cn(-c2ccccc2)c(NC(=O)c2cccc(-c3cn[nH]c3)c2)n1 [Example 57, 4-(2-(3-(1H-pyrazol-4-yl)benzamido)-1-phenyl-1H-imidazol-4-yl)butanoic acid]"
5,< 50,"Cn1cc(-c2cccc(C(=O)Nc3nc(CCCCCC(=O)N4CCCCC4)cn3-c3ccccc3)c2)cn1 [Example 200, 3-(1-methyl-1H-pyrazol-4-yl)-N-(4-(6-oxo-6-(piperidin-1-yl)hexyl)-1-phenyl-1H-imidazol-2-yl)benzamide]"
6,< 50,"COC(=O)CCCc1cn(-c2ccccc2)c(NC(=O)c2cccc(-c3cn[nH]c3)c2)n1 [Example 58, methyl 4-(2-(3-(1H-pyrazol-4-yl)benzamido)-1-phenyl-1H-imidazol-4-yl)butanoate]"
7,< 50,"Cn1cc(-c2cccc(C(=O)Nc3nc(CCCCCCN4CCCC4)cn3-c3ccccc3)c2)cn1 [Example 222, 3-(1-methyl-1H-pyrazol-4-yl)-N-(1-phenyl-4-(6-(pyrrolidin-1-yl)hexyl)-1H-imidazol-2-yl)benzamide]"
8,< 50,"COC[C@@H]1CCCN1C(=O)CCCCCc1cn(-c2ccccc2)c(NC(=O)c2cccc(-c3cn[nH]c3)c2)n1 [Example 100, (S)—N-(4-(6-(2-(methoxymethyl)pyrrolidin-1-yl)-6-oxohexyl)-1-phenyl-1H-imidazol-2-yl)-3-(1H-pyrazol-4-yl)benzamide]"
9,< 50,"O=C(Nc1nc(CCCC(=O)N2CCCCC2)cn1-c1ccccc1)c1cccc(-c2cn[nH]c2)c1 [Example 59, N-(4-(4-oxo-4-(piperidin-1-yl)butyl)-1-phenyl-1H-imidazol-2-yl)-3-(1H-pyrazol-4-yl)benzamide]"
10,< 50,"Cn1cc(-c2cccc(C(=O)Nc3nc(CCCC(=O)NCCC(C)(C)O)cn3-c3ccccc3)c2)cn1 [Example 171, N-(4-(4-((3-hydroxy-3-methylbutyl)amino)-4-oxobutyl)-1-phenyl-1H-imidazol-2-yl)-3-(1-methyl-1H-pyrazol-4-yl)benzamide]"
11,< 50,"Cn1cc(-c2cccc(C(=O)Nc3nc(CCCC(=O)N4CCN(C5CCCCC5)CC4)cn3-c3ccccc3)c2)cn1 [Example 182, N-(4-(4-(4-cyclohexylpiperazin-1-yl)-4-oxobutyl)-1-phenyl-1H-imidazol-2-yl)-3-(1-methyl-1H-pyrazol-4-yl)benzamide]"
12,< 50,"Cn1cc(-c2cccc(C(=O)Nc3nc(CCCC(N)=O)cn3-c3ccccc3)c2)cn1 [Example 189, N-(4-(4-amino-4-oxobutyl)-1-phenyl-1H-imidazol-2-yl)-3-(1-methyl-1H-pyrazol-4-yl)benzamide]"
13,< 50,"CN1CCN(C(=O)CCCc2cn(-c3ccc(F)cc3)c(NC(=O)c3cccc(-c4cnn(C)c4)c3)n2)CC1 [Example 299, N-(1-(4-fluorophenyl)-4-(4-(4-methylpiperazin-1-yl)-4-oxobutyl)-1H-imidazol-2-yl)-3-(1-methyl-1H-pyrazol-4-yl)benzamide]"
14,> 100,"CCOC(C)n1cc(-c2cccc(C(=O)Nc3nc(CCCC(=O)NC4CC4)cn3-c3ccccc3)c2)cn1 (stereo not shown) [Example 72, N-(4-(4-(cyclopropylamino)-4-oxobutyl)-1-phenyl-1H-imidazol-2-yl)-3-(1-(1-ethoxyethyl)-1H-pyrazol-4-yl)benzamide]"
15,50 to 100,"CNC(=O)CCCc1cn(-c2ccc(F)cc2F)c(NC(=O)c2cccc(-c3cn[nH]c3)c2)n1 [Example 298, N-(1-(2,4-difluorophenyl)-4-(4-(methylamino)-4-oxobutyl)-1H-imidazol-2-yl)-3-(1H-pyrazol-4-yl)benzamide]"
16,< 50,"O=C(Nc1nc(CCCCCCN2CCSCC2)cn1-c1ccccc1)c1cccc(-c2cn[nH]c2)c1 [Example 124, N-(1-phenyl-4-(6-thiomorpholinohexyl)-1H-imidazol-2-yl)-3-(1H-pyrazol-4-yl)benzamide]"
17,< 50,"Cn1cc(-c2cccc(C(=O)Nc3nc(CCCCC(=O)N4CCC[C@H](C(=O)O)C4)cn3-c3ccccc3)c2)cn1 [Example 208, (S)-1-(5-(2-(3-(1-methyl-1H-pyrazol-4-yl)benzamido)-1-phenyl-1H-imidazol-4-yl)pentanoyl)piperidine-3-carboxylic acid]"
18,> 100,"O=C(CCc1cn(-c2ccccc2)c(NC(=O)c2cccc(-c3c[nH]nc3[N+](=O)[O-])c2)n1)Nc1ccccc1 [Example 1, 3-(3-nitro-1H-pyrazol-4-yl)-N-(4-(3-oxo-3-(phenylamino)propyl)-1-phenyl-1H-imidazol-2-yl)benzamide]"
19,50 to 100,"COC[C@@H]1CCCN1C(=O)CCc1cn(-c2ccccc2)c(NC(=O)c2cccc(-c3cn[nH]c3)c2)n1 [Example 19, (S)—N-(4-(3-(2-(methoxymethyl)pyrrolidin-1-yl)-3-oxopropyl)-1-phenyl-1H-imidazol-2-yl)-3-(1H-pyrazol-4-yl)benzamide]"
20,> 100,"CN1CCN(NC(=O)CCc2cn(-c3ccccc3)c(NC(=O)c3cccc(-c4cn[nH]c4)c3)n2)CC1 [Example 9, N-(4-(3-((4-methylpiperazin-1-yl)amino)-3-oxopropyl)-1-phenyl-1H-imidazol-2-yl)-3-(1H-pyrazol-4-yl)benzamide]"
21,< 50,"CNC(=O)CCCc1cn(-c2ccccc2)c(NC(=O)c2cccc(-c3ccncc3)c2)n1 [Example 266, N-(4-(4-(methylamino)-4-oxobutyl)-1-phenyl-1H-imidazol-2-yl)-3-(pyridin-4-yl)benzamide]"
22,< 50,"O=C(Nc1nc(CCCCCN2CCOCC2)cn1-c1ccccc1)c1cccc(-c2cn[nH]c2)c1 [Example 119, N-(4-(5-morpholinopentyl)-1-phenyl-1H-imidazol-2-yl)-3-(1H-pyrazol-4-yl)benzamide]"
23,< 50,"COC[C@H]1CCCN1C(=O)CCCCc1cn(-c2ccccc2)c(NC(=O)c2cccc(-c3cn[nH]c3)c2)n1 [Example 87, (R)—N-(4-(5-(2-(methoxymethyl)pyrrolidin-1-yl)-5-oxopentyl)-1-phenyl-1H-imidazol-2-yl)-3-(1H-pyrazol-4-yl)benzamide]"
24,< 50,"CN1CCCN(C(=O)CCc2cn(-c3ccccc3)c(NC(=O)c3cccc(-c4cnn(C)c4)c3)n2)CC1 [Example 195, N-(4-(3-(4-methyl-1,4-diazepan-1-yl)-3-oxopropyl)-1-phenyl-1H-imidazol-2-yl)-3-(1-methyl-1H-pyrazol-4-yl)benzamide]"
25,< 50,"Cn1cc(-c2cccc(C(=O)Nc3nc(CCCCCCNC(=O)C4CC4)cn3-c3ccccc3)c2)cn1 [Example 228, N-(4-(6-(cyclopropanecarboxamido)hexyl)-1-phenyl-1H-imidazol-2-yl)-3-(1-methyl-1H-pyrazol-4-yl)benzamide]"
